Reference: EPA's ToxValDB 9.5 (doi:10.2903/j.efsa.2008.139r)

What was measured:
Typhlodromus pyri = assay: LR50; higher = less toxic; settings: not reported; mortality
Oncorhynchus mykiss = settings: chronic/long-term
Apis mellifera = settings: acute, mortality
Tagia sp. = settings: acute; duration: 14 days; mortality
Oryctolagus sp. = settings: developmental; development
Canidae = settings: oral, Dog Other, organ weight
Lepomis macrochirus = settings: acute; mortality
Perdix sp. = settings: acute; oral; unspecified; mortality
Daphnia magna = settings: chronic/long-term

CCO/N=C(\CC)C1=C(O)CC(c2c(C)cc(C)cc2C)CC1=O (stereo unspecified) [Tralkoxydim]
LR50 (Typhlodromus pyri): > 450 g/ha | LD50 (Rattus norvegicus; acute, oral, mortality): 934 mg/kg-day | NOAEL (Rattus norvegicus; developmental, development): 1 mg/kg-day | NOAEL (Rattus norvegicus; reproduction developmental, body weight): 18.2 mg/kg-day | NOEC (Oncorhynchus mykiss): 4.6 mg/L | LD50 (Apis mellifera; dermal): > 100 µg/piece | LD50 (Apis mellifera; oral, unspecified): > 117 µg/piece | LC50 (Tagia sp.): > 1000 mg/kg | NOEC (Oryctolagus sp.): 20 mg/kg-day | LC50 (Colinus virginianus; acute, oral, diet, mortality): 1020 mg/kg-day | NOEC (Colinus virginianus; reproduction developmental): 14.3 mg/kg-day | NOAEL (Canidae; chronic, duration: 1 years): 0.5 mg/kg-day | NOAEL (Canidae; subchronic, duration: 90 days): 0.5 mg/kg-day | LC50 (Lepomis macrochirus): > 6.1 µg/mL | LD50 (Perdix sp.): 2020 mg/kg-day | NOEC (Daphnia magna): 2.1 mg/L
